Measurements taken from paper PMC6829864, “Determination of Ligand Profiles for Pseudomonas aeruginosa Solute Binding Proteins” (International Journal of Molecular Sciences, 2019).
Entries after “also recorded” stand apart in the source; their conditions may differ.

How the values were obtained:
[1] = biological target: T1, PA2338 (Pseudomonas aeruginosa, UniProt Q9I1E0); assay: Isothermal titration calorimetry, PA2338; assay type: binding, Pseudomonas aeruginosa PAO1; conditions: 25 °C
[2] = biological target: T2, PA0222 (Pseudomonas aeruginosa, UniProt Q9I6R6); assay type: binding; conditions: Tm change vs ligand-free protein
T2 sequence (Q9I6R6 29-352): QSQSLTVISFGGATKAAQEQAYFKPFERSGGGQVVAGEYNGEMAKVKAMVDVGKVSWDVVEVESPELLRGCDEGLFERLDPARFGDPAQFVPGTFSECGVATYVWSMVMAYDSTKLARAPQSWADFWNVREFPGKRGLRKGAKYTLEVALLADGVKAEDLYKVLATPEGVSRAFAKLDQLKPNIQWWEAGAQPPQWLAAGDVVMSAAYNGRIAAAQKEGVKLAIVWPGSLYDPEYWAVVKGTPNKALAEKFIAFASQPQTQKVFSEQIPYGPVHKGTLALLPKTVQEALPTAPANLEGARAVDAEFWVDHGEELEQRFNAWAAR

[3] = biological target: T2, PA0222; assay: Isothermal titration calorimetry, PA0222; assay type: binding, Pseudomonas aeruginosa PAO1; conditions: 25 °C
[4] = biological target: T3, PA3889 (opuCC) (Pseudomonas aeruginosa, UniProt Q9HXC4); assay: Isothermal titration calorimetry, PA3889; assay type: binding, Pseudomonas aeruginosa PAO1; conditions: 25 °C
T3 sequence (Q9HXC4 24-311): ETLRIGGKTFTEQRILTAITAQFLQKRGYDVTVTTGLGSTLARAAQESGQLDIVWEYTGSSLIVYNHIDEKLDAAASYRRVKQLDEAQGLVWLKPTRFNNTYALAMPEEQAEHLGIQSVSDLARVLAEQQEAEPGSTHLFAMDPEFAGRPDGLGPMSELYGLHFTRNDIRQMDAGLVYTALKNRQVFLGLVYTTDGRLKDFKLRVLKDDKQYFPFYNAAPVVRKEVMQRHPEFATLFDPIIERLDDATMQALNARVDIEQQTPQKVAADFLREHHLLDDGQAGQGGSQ

[5] = test system: Pseudomonas aeruginosa PAO1; assay type: cell-based; conditions: chemoeffector 1 mM, except molybdate 0.1 mM
[6] = biological target: T3, PA3889 (opuCC); assay: DSF thermal shift ligand screening, PA3889; assay type: binding, Pseudomonas aeruginosa PAO1; conditions: Tm change vs ligand-free protein
[7] = biological target: T4, PA2592 (Pseudomonas aeruginosa, UniProt Q9I0P5); assay: DSF thermal shift ligand screening, PA2592; assay type: binding, Pseudomonas aeruginosa PAO1; conditions: arrays PM2A, PM3B, PM5
T4 sequence (Q9I0P5 20-367): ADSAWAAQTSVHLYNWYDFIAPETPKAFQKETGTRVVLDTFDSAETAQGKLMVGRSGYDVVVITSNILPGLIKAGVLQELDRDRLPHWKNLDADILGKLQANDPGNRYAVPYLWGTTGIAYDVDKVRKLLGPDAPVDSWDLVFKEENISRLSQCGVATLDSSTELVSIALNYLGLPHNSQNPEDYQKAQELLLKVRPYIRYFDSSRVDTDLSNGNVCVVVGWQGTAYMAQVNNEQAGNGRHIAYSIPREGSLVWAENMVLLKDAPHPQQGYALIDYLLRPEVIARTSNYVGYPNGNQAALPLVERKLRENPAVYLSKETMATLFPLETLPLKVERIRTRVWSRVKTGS

[8] = biological target: T5, PA3610 (potD) (Pseudomonas aeruginosa, UniProt Q9HY16); assay: Isothermal titration calorimetry, PA3610; assay type: binding, Pseudomonas aeruginosa PAO1; conditions: 25 °C
T5 sequence (Q9HY16 21-354): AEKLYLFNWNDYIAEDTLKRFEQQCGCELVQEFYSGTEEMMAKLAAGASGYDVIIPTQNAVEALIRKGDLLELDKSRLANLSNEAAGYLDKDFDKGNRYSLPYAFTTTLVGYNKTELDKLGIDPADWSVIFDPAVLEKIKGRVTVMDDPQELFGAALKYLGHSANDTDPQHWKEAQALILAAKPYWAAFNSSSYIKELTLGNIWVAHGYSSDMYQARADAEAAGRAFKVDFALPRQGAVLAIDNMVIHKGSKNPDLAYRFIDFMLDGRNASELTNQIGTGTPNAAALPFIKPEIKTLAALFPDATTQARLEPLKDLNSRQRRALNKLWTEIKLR

[9] = biological target: T4, PA2592; assay: biochemical; assay type: binding
[10] = biological target: T6, PA1342 (aatJ) (Pseudomonas aeruginosa, UniProt Q9I402); assay type: binding; conditions: 25 °C
T6 sequence (Q9I402 24-302): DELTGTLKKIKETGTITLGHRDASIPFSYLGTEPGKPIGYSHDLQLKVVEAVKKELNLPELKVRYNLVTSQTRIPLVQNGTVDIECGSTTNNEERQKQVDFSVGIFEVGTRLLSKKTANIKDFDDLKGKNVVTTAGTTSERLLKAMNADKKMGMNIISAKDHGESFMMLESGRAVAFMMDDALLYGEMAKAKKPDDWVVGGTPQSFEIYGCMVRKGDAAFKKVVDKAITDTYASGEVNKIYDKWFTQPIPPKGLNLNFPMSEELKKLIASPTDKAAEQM

[11] = biological target: T6, PA1342 (aatJ); assay: DSF thermal shift ligand screening, PA1342; assay type: binding, Pseudomonas aeruginosa PAO1; conditions: Tm change vs ligand-free protein
[12] = biological target: T7, PA1074 (braC) (Pseudomonas aeruginosa, UniProt P21175); assay: biochemical; assay type: binding, Pseudomonas aeruginosa PAO1
T7 sequence (P21175 27-373): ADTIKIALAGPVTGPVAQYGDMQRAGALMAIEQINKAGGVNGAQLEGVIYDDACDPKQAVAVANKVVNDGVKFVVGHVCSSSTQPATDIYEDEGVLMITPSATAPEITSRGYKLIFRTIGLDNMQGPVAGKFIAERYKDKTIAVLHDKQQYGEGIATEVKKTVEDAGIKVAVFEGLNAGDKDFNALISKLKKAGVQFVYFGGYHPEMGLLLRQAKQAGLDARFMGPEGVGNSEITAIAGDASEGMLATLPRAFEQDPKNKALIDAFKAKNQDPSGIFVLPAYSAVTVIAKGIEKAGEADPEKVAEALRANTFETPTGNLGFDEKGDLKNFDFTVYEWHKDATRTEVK

[13] = biological target: T7, PA1074 (braC); assay type: binding, Pseudomonas aeruginosa PAO1; conditions: Tm change vs ligand-free protein
[14] = biological target: T1, PA2338; assay: DSF thermal shift ligand screening, PA2338; assay type: binding, Pseudomonas aeruginosa PAO1; conditions: Tm change vs ligand-free protein
[15] = biological target: T5, PA3610 (potD); assay: DSF thermal shift ligand screening, PA3610; assay type: binding, Pseudomonas aeruginosa PAO1; conditions: Tm change vs ligand-free protein
[16] = biological target: T8, PA1493 (cysP) (Pseudomonas aeruginosa, UniProt Q9I3L9); assay: biochemical; assay type: binding, Pseudomonas aeruginosa PAO1
T8 sequence (Q9I3L9 23-332): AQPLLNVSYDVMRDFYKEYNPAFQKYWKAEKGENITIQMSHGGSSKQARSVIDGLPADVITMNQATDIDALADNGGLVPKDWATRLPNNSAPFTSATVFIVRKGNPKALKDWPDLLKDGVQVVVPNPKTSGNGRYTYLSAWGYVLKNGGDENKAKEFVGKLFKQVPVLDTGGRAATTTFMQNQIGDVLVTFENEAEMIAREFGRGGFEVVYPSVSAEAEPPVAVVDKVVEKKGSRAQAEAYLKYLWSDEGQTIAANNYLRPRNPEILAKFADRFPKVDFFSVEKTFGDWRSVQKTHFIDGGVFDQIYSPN

[17] = biological target: T8, PA1493 (cysP); conditions: Tm change vs ligand-free protein
[18] = test system: PA0283 (sbp); assay: DSF thermal shift ligand screening, PA0283; assay type: binding, Pseudomonas aeruginosa PAO1; conditions: Tm change vs ligand-free protein
[19] = biological target: PA0283 (sbp); assay: Isothermal titration calorimetry, PA0283; assay type: binding, Pseudomonas aeruginosa PAO1; conditions: 25 °C
[20] = test system: PA4687 (hitA); conditions: Tm change vs ligand-free protein
[21] = test system: PA4687 (hitA); assay type: binding, Pseudomonas aeruginosa PAO1

T1 sequence (Q9I1E0 23-436): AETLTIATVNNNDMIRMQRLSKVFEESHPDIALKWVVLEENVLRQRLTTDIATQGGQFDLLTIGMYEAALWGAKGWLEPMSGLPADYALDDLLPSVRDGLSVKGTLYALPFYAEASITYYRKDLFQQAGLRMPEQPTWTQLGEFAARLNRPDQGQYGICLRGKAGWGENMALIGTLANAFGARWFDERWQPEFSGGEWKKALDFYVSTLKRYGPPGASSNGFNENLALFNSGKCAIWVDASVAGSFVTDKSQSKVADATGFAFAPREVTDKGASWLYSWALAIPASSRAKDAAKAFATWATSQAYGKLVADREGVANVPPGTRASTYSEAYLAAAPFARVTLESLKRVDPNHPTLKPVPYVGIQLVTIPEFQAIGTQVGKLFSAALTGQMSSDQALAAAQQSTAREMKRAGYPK

In the case of `OC[C@H]1O[C@H](O[C@H]2[C@H](O)[C@@H](O)C(O)O[C@@H]2CO)[C@H](O)[C@@H](O)[C@@H]1O` (mixture of isomers) [Maltose], the “No Binding Observed by ITC” value [1] is reported as “absence of maltose binding”.

`CC(N)CCC(=O)O` (stereo not drawn) [4-aminovalerate, 4-aminovaleric acid] was tested, and the “Tm DSF (Tm increase)” value [2] was 2.2 °C, the “KD by ITC” value [3] was “No binding” and the “No Binding Observed by ITC” value [3] was “failed to bind”.

With `NCCCC(=O)O` [GABA, γ-amino-butyric acid] the “Tm DSF (Tm increase)” value [2] was 9.6 °C.

In the case of `C[N+](C)(C)CC(=O)O` [Glycine-betaine], the Kd ([4]; read-out: KD by ITC) is reported as 3000 ± 400 nM, the “Chemotaxis response in words” value [5] is reported as “very strong taxis” and the “Tm DSF (Tm increase)” value [6] is reported as 3.2 °C.

With `NCCc1c[nH]cn1` [Histamine] the “Tm DSF (Tm increase)” value [7] was 3.9 °C, the “No Binding Observed by ITC” value [8] was “did not reveal any binding” and the “KD by ITC” value ([9]; PA2592, 25 °C) was “No binding”. For the same compound, the “No Binding Observed by ITC” value ([9]; PA2592, 25 °C) was “no binding” and the “No Binding Observed by ITC” value [3] was “failed to bind; also recorded: no measurable affinity”.

`NC(=O)C[C@H](N)C(=O)O` [L-Asn] was tested, and the “No Binding Observed by ITC” value [10] was “No binding was observed”.

`N[C@@H](CC(=O)O)C(=O)O` [L-Asp] was tested, and the “Tm DSF (Tm increase)” value [11] was 10.9 °C.

With `NC(=O)CC[C@H](N)C(=O)O` [L-Gln] the “No Binding Observed by ITC” value [10] was “No binding was observed”.

With `CC(C)C[C@H](N)C(=O)O` [L-Leu] the Kd [12] was 290 nM and the “Tm DSF (Tm increase)” value [13] was 4.0 12.1 10.1 10.2 3.0 3.5 5.0 3.8 4.2 °C.

In the case of `C[N+](C)(C)C[C@H](O)CC(=O)[O-]` [L-carnitine], the “KD by ITC” value [4] is reported as “No binding”, the “No Binding Observed by ITC” value [4] is reported as “no binding heats were observed” and the Chemotaxis ([5]; capillary assay, 30 min) is reported as “Yes Yes (Positive chemotaxis was considered when the number of bacterial cells per capillary was superior to 5000.)”. For the same compound, the “Chemotaxis response in words” value [5] was “very strong taxis” and the “Tm DSF (Tm increase)” value [6] was 2.8 °C.

For `OC[C@@H](O)[C@@H](O)[C@H](O)[C@H](O)CO` [Mannitol], the “Tm DSF (Tm increase)” value [14] was 4.1 °C and the Kd ([1]; read-out: KD by ITC) was 830 ± 200 nM.

`NCCCCN` [Putrescine] was tested, and the “Tm DSF (Tm increase)” value [7] was 4.4 °C, the Kd ([8]; read-out: KD by ITC (converted)) was 4800 ± 400 nM and the Kd [9] was 31000 ± 4000 nM. The “No Binding Observed by ITC” value [3] was “no measurable affinity”, the “Tm DSF (Tm increase)” value [15] was 13 n. d.^2 °C and the “Tm DSF (Tm increase)” value ([15]; listed as putrescine) was 13 °C.

`NCCCCNCCCN` [Spermidine] was tested, and the “No Binding Observed by ITC” value [8] was “did not reveal any binding”, the “No Binding Observed by ITC” value ([9]; PA2592, 25 °C) was “no binding” and the “No Binding Observed by ITC” value [3] was “failed to bind; also recorded: no measurable affinity”. For the same compound, the “Tm DSF (Tm increase)” value [15] was “did not stabilize the protein”.

`O=S(O)(O)=S` [Thiosulphate] was tested, and the “Chemotaxis response in words” value [5] was “moderate taxis”, the Kd [16] was 290 ± 200 nM and the “Tm DSF (Tm increase)” value [17] was 7.4 °C. The “Tm DSF (Tm increase)” value [18] was 2.1 °C and the “KD by ITC” value [19] was “No binding No binding”.

With Iron(III) citrate the “Tm DSF (Tm increase)” value [20] was “no significant increases in Tm” and the “No Binding Observed by ITC” value [21] was “did not show any binding”.
